The source of these data is patent US20240093259A1, “METHODS TO STABILIZE MAMMALIAN CELLS” (THE REGENTS OF THE UNIVERSITY OF CALIFORNIA, priority 2019, published 2024).

Holding throughout (assay type): cell-based, Chinese hamster
In assay [1] the test system is CHO-K1 cells. As to the kind of experiment: Karyotype analysis after long-term culture (multi-color FISH chromosome painting). As to conditions: wild-type CHO-K1 cultured under permanent supplementation, 60 passages. The method, then: Metaphase spreads were prepared as previously described. Samples were labeled with multi-color DNA fluorescence in situ hybridization (FISH) probes (12× CHamster mFISH probe kit, MetaSystems) for spectral karyotyping as previously described. For karyotypic analyses, the most abundant karyotype across samples was defined as the representative (“main”) karyotype, and deviations from this karyotype were scored as a numerical alteration (whole-chromosomal aneuploidy) and/or structural alteration (inter-chromosomal rearrangement, visible deletion). Structurally aberrant karyotypes (FIG. 8b) were defined as karyotypes showing at least one structural deviation from the representative karyotype. Since unrepaired DSBs can lead to chromosomal aberrations, as mentioned above, we prepared karyotype samples of wildtype and engineered cell lines to analyze chromosomal aberrations on the single cell level. For this, both ATM+ and ATM+ PRKDC+ cell lines were cultured in parallel to the parental wildtype clone for a total of 60 passages (approx. 120 doublings) after which cells were arrested in mitosis, metaphase chromosomal spreads were prepared and stained with chromosome-specific probes (“chromosome painting”) to detect structural and numerical variations. […]

Assay [2] concerns CHO-K1 cells. As to the kind of experiment: EJ5-GFP double-strand break (DSB) reporter flow cytometry assay in CHO-K1. The text has this: FIGS. 2A-2B show GFP-based double-strand break (DSB) reporter system. […] The spacer prevents the promoter from driving GFP expression. Step 2: Transient transfection with the DSB-inducing plasmid (B) induces two DSBs at the 5′ and 3′ ends of the spacer. Successfully transfected cells are identified through far-red fluorescence from miRFP670, fused to Cas9 (B). Step 3: Transfected cells that repair both DSBs properly keep the spacer in place and thus remain GFP-negative. Transfected cells that fail to repair both DSBs in time produce a large sequence loss, moving the GFP in proximity to the promoter, resulting in GFP expression. Thus, the fraction of GFP-positive cells among all transfected cells (far-red positive) serves as a read-out for the inefficiency of DSB repair. […]
The invention provides a tool to quantify double-strand break (DSB) repair in CHO. […] This reporter system comprises a GFP reading frame, separated from its promoter with a large (2 kb) spacer (FIG. 2A). […] Thus, this tool allows quantitative detection of DSB repair efficiency in living cells and is a powerful read-out for how restoration of individual DSB repair genes improves chromosome stability.
The EJ5-GFP reporter plasmid (addgene #44026) was linearized with XhoI and transfected into CHO-K1 and CHO-SEAP using electroporation (Neon, Thermo Fisher). […] Impaired DSB repair is detected by positive GFP expression. […]

A further assay relates to CHO-SEAP cells. Nature of the assay: Long-term culture SEAP titer (SEAP reporter assay). The following applies: CHO-SEAP cells under constant 5 μM MTX supplementation, 48 passages. The method, then:
Cells were cultured in triplicates on 6-well plates. All cells were treated with 5 μM methotrexate (MTX) (MilliporeSigma) for 2 weeks at the beginning of the study (P0-P7) after which only one triplicate per genotype was continued under MTX until the rest of the study. Cells were cultured for 48 passages in total, with 3 passages/week. […]. Protein titer was measured at P0, P7, and P48 using a SEAP reporter assay (Applied Biosystems, ThermoFisher).
To finally investigate whether DNA-repair optimization has beneficial effects on transgene expression, we grew CHO-SEAP WT and CHO-SEAP CMV::XRCC6 alongside in a long-term culture experiment, and compared SEAP titer at the beginning and the end. Prior to the start of the experiment, cells were cultured in 5 uM methotrexate (MTX) for 1 week to select for high SEAP expression, after which MTX was taken off the growth medium in half of the samples (FIG. 9c). MTX is a competitive inhibitor of dihydrofolate reductase, an essential metabolic enzyme, which is co-expressed with the transgenic SEAP locus (FIG. 9b).
A general note: In a reporter assay the amount or activity of a reporter protein is the signal.

On to `C[C@@H]1CN(CC(=O)Nc2ccc3c(c2)Cc2cccc(-c4cc(=O)cc(N5CCOCC5)o4)c2S3)C[C@H](C)O1` [KU-60019], for which the “structural abnormalities in karyotype” value in the assay with CHO-K1 cells [1] is “massive increase in structural abnormalities”. Moreover, in the assay with CHO-K1 cells [2] (CHO-K1 carrying GFP reporter, DSB-inducer transfection, ATM inhibitor 3 μM, FACS 24h after transfection), the “fraction of GFP+ cells (inefficiency of DSB repair)” value is listed as “increases the fraction of GFP+ cells”. Besides, the “GFP+ positive cells (compromised DSB repair)” value in the assay on CHO-K1 cells [2] (CHO-K1 wildtype carrying EJ5-GFP, DSB-inducing plasmid, vs DMSO (Example 2, FIG. 5c)) is on record as “significant increase in GFP+ positive cells”.
Take `CN(Cc1cnc2nc(N)nc(N)c2n1)c1ccc(C(=O)N[C@@H](CCC(=O)O)C(=O)O)cc1` [MTX, methotrexate]: the “SEAP titer at end of long-term culture” value with CHO-SEAP cells is “no reduction in SEAP titer”.
